In publication PMC2654064, “S9, a Novel Anticancer Agent, Exerts Its Anti-Proliferative Activity by Interfering with Both PI3K-Akt-mTOR Signaling and Microtubule Cytoskeleton” (PLoS ONE, 2009):
Read-outs that look alike come from different tables or passages of the source.

How the values were obtained:
[1] = molecular target: T1, tubulin; test: SPR (Biacore); supported by colchicine fluorescence competition, polymerization of purified pork tubulin and CD; type: binding, Sus scrofa
T1 construct: gene TUBB; purified tubulin (Cytoskeleton, Denver) immobilized on CM5 chip; with alpha-tubulin

[2] = test system: K562; test: cells; parameters: SRB anti-proliferation assay against a panel of human tumour cell lines; settings: Homo sapiens, K562
Method: (§1) The anti-proliferative activity of S9 was measured with SRB assay against a panel of human tumor cells, including oral epidermoid cancer, lung cancer, liver cancer, colon cancer, rhabdomyosarcoma, ovarian cancer, osteosarcoma, breast cancer, cervix cancer, stomach cancer, prostate cancer and leukemia cells. […] This advantage was also observed in the mini-set of colon cancer cell lines (Fig. 6A). […] A) Antiproliferative activity of S9 and wortmannin against a wide panel of tumor cell lines. IC50s plotted as mean±SD (µM) were from three separate experiments. B) Resistance factor (RF) of S9 and reference compounds in drug-resistant cancer cells. RF was calculated as the ratio of the IC50 value of the drug-resistant cells to that of the corresponding parental cells. C) S9 induces rapid apoptosis in human cancer cells. Rh30, A375, MKN-28 and U2OS cells were treated with S9 for 8 h. Apoptosis was measured by Annexin V-PI double staining. Apoptosis measured as Annexin-V positive cells were plotted. Data shown were mean±SD from three independent experiments. D) Rh30 (left panel) and SMMC7721 (right panel) xenograft growth inhibition after administration of S9. Rh30 and SMMC7721 nude mice were subcutaneously inoculated with a tumor fragment. The animals were randomly divided in groups when tumor volume reached 100 to 200 mm^3 and received i.p. injection of normal saline or S9 five times a week for two weeks. Tumor volumes were measured and relative tumor volumes were calculated as tumor volumeDn/tumor volumeD0. Data shown are the mean of six mice. Human colorectal carcinoma LOVO, human breast carcinoma MDA-MB-468, human prostate carcinoma PC3, human osteosarcoma U2OS cells were from American Type Culture Collection (ATCC, Manassas, VA); human lung adenocarcinoma NCI-H23 cells were obtained from the National Cancer Institute (NCI); rhabdomyosarcoma (RMS) Rh30 cells were generous gift from Dr. P.J. Houghton (St. Jude Children's Research Hospital, Memphis, TN). MDA-MB-468, Rh30, LOVO, NCI-H23 and U2OS cells were grown in RPMI-1640 medium supplemented with 10% (v/v) fetal bovine serum (FBS; GIBCO, Grand Island, NY), 2 mM L-glutamine, 100 U/ml benzylpenicillin, 100 µg/ml streptomycin and 10 mM HEPES (pH 7.4). PC3 cells were grown in Ham's F12 (GIBCO, Grand Island, NY) with 10% FBS. CHO (pCORON1000-EGFP-Akt) was purchased from GE Healthcare (EGFP: Enhanced Green Fluorescence Protein) and propagated in F-12 Ham medium with Glutamax supplemented with 10% FBS, penicillin-streptomycin (50 U/ml) and geneticin (0.5 mg/ml, Sigma-Aldrich, St. Louis, MO). Rest of cells used in this study were grown as described previously. All cells were cultured in a highly humidified atmosphere containing 5% CO2 at 37°C.

[3] = test system: Hep-G2; test: cells; parameters: SRB anti-proliferation assay against a panel of human tumour cell lines; settings: Homo sapiens, HepG2
Method: as §1

[4] = test system: KB-8-5-11; test: cells; parameters: SRB anti-proliferation assay against a panel of human tumour cell lines
Method: as §1

[5] = test system: K562/A02; test: cells; parameters: SRB anti-proliferation assay against a panel of human tumour cell lines; settings: Homo sapiens, K562/A02; read-out: IC50 (μM) S9
Method: as §1

[6] = test system: KB-V1; test: cells; parameters: SRB anti-proliferation assay against a panel of human tumour cell lines; settings: Homo sapiens, KB-V1
Method: as §1

[7] = test system: PC3; test: cells; parameters: SRB anti-proliferation assay against a panel of human tumour cell lines; settings: Homo sapiens, PC-3; read-out: IC50 (μM) S9
Method: as §1

[8] = test system: SGC-7901; test: cells; parameters: SRB anti-proliferation assay against a panel of human tumour cell lines; settings: Homo sapiens, SGC-7901
Method: as §1

[9] = test system: MKN-28; test: cells; parameters: SRB anti-proliferation assay against a panel of human tumour cell lines; settings: Homo sapiens, MKN-28
Method: as §1

[10] = test system: MCF-7/ADR; test: cells; parameters: SRB anti-proliferation assay against a panel of human tumour cell lines; settings: Homo sapiens, NCI/ADR-RES
Method: as §1

[11] = test system: MCF-7; test: cells; parameters: SRB anti-proliferation assay against a panel of human tumour cell lines; settings: Homo sapiens, MCF7; read-out: IC50 (μM) S9
Method: as §1

[12] = test system: HL60; test: cells; parameters: SRB anti-proliferation assay against a panel of human tumour cell lines; settings: Homo sapiens, HL-60
Method: as §1

[13] = test system: A549; test: cells; parameters: SRB anti-proliferation assay against a panel of human tumour cell lines; settings: Homo sapiens, A549
Method: as §1

[14] = test system: OV-CAR-5; test: cells; parameters: SRB anti-proliferation assay against a panel of human tumour cell lines; settings: Homo sapiens, OVCAR-5; read-out: IC50 (μM) S9
Method: as §1

[15] = test system: BEL-7402; test: cells; parameters: SRB anti-proliferation assay against a panel of human tumour cell lines; settings: Homo sapiens, Bel-7402; read-out: IC50 (μM) S9
Method: as §1

[16] = test system: KB-3-1; test: cells; parameters: SRB anti-proliferation assay against a panel of human tumour cell lines; settings: Homo sapiens, KB 3-1
Method: as §1

[17] = test system: SK-OV-3; test: cells; parameters: SRB anti-proliferation assay against a panel of human tumour cell lines; settings: Homo sapiens, SK-OV-3
Method: as §1

[18] = test system: NCI-H23; test: cells; parameters: SRB anti-proliferation assay against a panel of human tumour cell lines; settings: Homo sapiens, NCI-H23
Method: as §1

[19] = test system: Hela; test: cells; parameters: SRB anti-proliferation assay against a panel of human tumour cell lines; settings: Homo sapiens, HeLa; read-out: IC50 (μM) S9
Method: as §1

[20] = test system: HT-29; test: cells; parameters: SRB anti-proliferation assay against a panel of human tumour cell lines; settings: Homo sapiens, HT-29
Method: as §1

[21] = test system: U2OS; test: cells; parameters: SRB anti-proliferation assay against a panel of human tumour cell lines; settings: Homo sapiens, U2OS
Method: as §1

[22] = test system: MKN-45; test: cells; parameters: SRB anti-proliferation assay against a panel of human tumour cell lines; settings: Homo sapiens, MKN-45; read-out: IC50 (μM) S9
Method: as §1

[23] = test system: Rh30/rapa; test: cells; parameters: SRB anti-proliferation assay against a panel of human tumour cell lines; settings: Rh30
Method: as §1

[24] = test system: HCT-116; test: cells; parameters: SRB anti-proliferation assay against a panel of human tumour cell lines; settings: Homo sapiens, HCT-116
Method: as §1

[25] = test system: Rh30; test: cells; parameters: SRB anti-proliferation assay against a panel of human tumour cell lines; settings: Rh30
Method: as §1

[26] = test system: MDA-MB-468; test: cells; parameters: SRB anti-proliferation assay against a panel of human tumour cell lines; settings: Homo sapiens, MDA-MB-468
Method: as §1

[27] = test system: KB-8-5; test: cells; parameters: SRB anti-proliferation assay against a panel of human tumour cell lines; settings: read-out: IC50 (μM) S9
Method: as §1

[28] = test system: K562/G01; test: cells; parameters: SRB anti-proliferation assay against a panel of human tumour cell lines; settings: Homo sapiens, K562
Method: as §1

[29] = test system: Rh1; test: cells; parameters: SRB anti-proliferation assay against a panel of human tumour cell lines; settings: Homo sapiens, RH-1; read-out: IC50 (μM) S9
Method: as §1

[30] = test system: LOVO; test: cells; parameters: SRB anti-proliferation assay against a panel of human tumour cell lines; settings: Homo sapiens, LoVo
Method: as §1

[31] = test system: HL60/MX2; test: cells; parameters: SRB anti-proliferation assay against a panel of human tumour cell lines; settings: Homo sapiens, HL60/MX2
Method: as §1

## C=C1CC(Cn2c(-c3ccccc3)cc3cc(OCOC)ccc32)OC1=O (stereo not shown) [S9]
[1]
  Kd: 11.1 µM
[2]; read-out: IC50 (μM) S9
  IC50: 2.2 ± 0.33 µM
[3]; read-out: IC50 (μM) S9
  IC50: 4.55 ± 1.8 µM
[4]; read-out: IC50 (μM) S9
  IC50: 14.9 ± 1.3 µM
[5]
  IC50: 2.5 ± 0.01 µM
[6]; read-out: IC50 (μM) S9
  IC50: 13.3 ± 2.2 µM
[7]
  IC50: 5.34 ± 1.39 µM
[8]; read-out: IC50 (μM) S9
  IC50: 11.6 ± 2.41 µM
[9]; read-out: IC50 (μM) S9
  IC50: 2.38 ± 0.39 µM
[10]; read-out: IC50 (μM) S9
  IC50: 5.73 ± 1.68 µM
[11]
  IC50: 4.86 ± 1.34 µM
[12]; read-out: IC50 (μM) S9
  IC50: 2.25 ± 0.74 µM
[13]; read-out: IC50 (μM) S9
  IC50: 14.8 ± 2.2 µM
[14]
  IC50: 15.4 ± 2.9 µM
[15]
  IC50: 11.8 ± 1.6 µM
[16]; read-out: IC50 (μM) S9
  IC50: 20.2 ± 3.8 µM
[17]; read-out: IC50 (μM) S9
  IC50: 25.5 ± 0.1 µM
[18]; read-out: IC50 (μM) S9
  IC50: 9.02 ± 0.05 µM
[19]
  IC50: 6.36 ± 1.51 µM
[20]; read-out: IC50 (μM) S9
  IC50: 5.88 ± 0.28 µM
[21]; read-out: IC50 (μM) S9
  IC50: 5.9 ± 0.38 µM
[22]
  IC50: 2.62 ± 0.26 µM
[23]; read-out: IC50 (μM) S9
  IC50: 3.85 ± 0.95 µM
[24]; read-out: IC50 (μM) S9
  IC50: 19.6 ± 1.9 µM
[25]; read-out: IC50 (μM) S9
  IC50: 3.24 ± 1.2 µM
[26]; read-out: IC50 (μM) S9
  IC50: 14.1 ± 4.6 µM
[27]
  IC50: 28.8 ± 7.3 µM
[28]; read-out: IC50 (μM) S9
  IC50: 2.17 µM
[29]
  IC50: 6.14 ± 0.05 µM
[30]; read-out: IC50 (μM) S9
  IC50: 5.05 ± 0.5 µM
[31]; read-out: IC50 (μM) S9
  IC50: 2.41 ± 1.28 µM

## COC[C@H]1OC(=O)c2coc3c2[C@@]1(C)C1=C(C3=O)[C@@H]2CCC(=O)[C@@]2(C)C[C@H]1OC(C)=O [wortmannin]
[2]; read-out: IC50 (μM) wortmannin
  IC50: 54.8 ± 6.3 µM
[3]; read-out: IC50 (μM) wortmannin
  IC50: 12.3 ± 2.6 µM
[4]; read-out: IC50 (μM) wortmannin
  IC50: 15.7 ± 4.1 µM
[6]; read-out: IC50 (μM) wortmannin
  IC50: 16.8 ± 2.2 µM
[8]; read-out: IC50 (μM) wortmannin
  IC50: 3.94 ± 1.74 µM
[9]; read-out: IC50 (μM) wortmannin
  IC50: 12.8 ± 2.8 µM
[10]; read-out: IC50 (μM) wortmannin
  IC50: 47.2 ± 6.45 µM
[12]; read-out: IC50 (μM) wortmannin
  IC50: 7.55 ± 2.84 µM
[13]; read-out: IC50 (μM) wortmannin
  IC50: 9.33 ± 6.1 µM
[16]; read-out: IC50 (μM) wortmannin
  IC50: 27.2 ± 3.2 µM
[17]; read-out: IC50 (μM) wortmannin
  IC50: 18 ± 6.3 µM
[18]; read-out: IC50 (μM) wortmannin
  IC50: 5.57 ± 1.15 µM
[20]; read-out: IC50 (μM) wortmannin
  IC50: 18 ± 2.4 µM
[21]; read-out: IC50 (μM) wortmannin
  IC50: 26.7 ± 4.31 µM
[23]; read-out: IC50 (μM) wortmannin
  IC50: 0.73 ± 0.51 µM
[24]; read-out: IC50 (μM) wortmannin
  IC50: 41.5 ± 4.5 µM
[25]; read-out: IC50 (μM) wortmannin
  IC50: 11 ± 3.02 µM
[26]; read-out: IC50 (μM) wortmannin
  IC50: 29.3 ± 6.6 µM
[28]; read-out: IC50 (μM) wortmannin
  IC50: 10.4 ± 4.52 µM
[30]; read-out: IC50 (μM) wortmannin
  IC50: 12.2 ± 0.42 µM
[31]; read-out: IC50 (μM) wortmannin
  IC50: 1.47 ± 0.6 µM
